Target: T1, PI3Kγ (purified recombinant p101/p110γ protein) (Homo sapiens, UniProt P48736)
T1 construct: HA; made in house; host or cells: Spodoptera frugiperda Sf9 cells (baculovirus co-infection)
Experiment: PI3Kγ In Vitro Kinase Assay
Type: biochemical
Conditions: final ATP 20 μM, 25 μM PIP2, G protein β1/γ2 subunits, 20 minutes at room temperature
Procedure: Spodtera frugiperda cells, grown in ESF921 media, were co-infected with baculovirus expressing a glu-tagged p101 and baculovirus expressing an HA-tagged p110γ, at a 3:1 ratio of p101 baculovirus to p110γ baculovirus. Sf9 cells were grown to 1×10^7 total cells/mL in 10 L bioreactors and harvested 48-72 hours post infection. Samples of infected cells were then tested for expression of p101/p110γ PI3 kinase by immunoprecipitation and Western Blot analysis methods (see below).
To purify PI3Kγ, 4 volumes of room temperature hypotonic lysis buffer (1 mM MgCl2, 1 mM DTT, 5 mM EGTA, 1 mM Pefabloc, 0.5 μM aprotinin, 5 μM leupeptin, 2 μM pepstatin, 5 μM E64, pH 8) per gram of cell paste, was poured onto frozen cell pellets with stirring, then lysed in a nitrogen “bomb” at 400 psi (599HC T316, Parr Instrument Co, Moline, Ill.). NaCl was added to 150 mM, and sodium cholate was added to 1% and mixed for another 45 minutes. The lysates were clarified by centrifugation for 25 minutes at 14,000 rpm. The lysates were then loaded over anti-glu-linked Protein-G Sepaharose beads (Covance Research Products, Richmond, Calif.) using 20 mL resin/50 g cell paste. The column was washed with 15 volumes of wash buffer (1 mM DTT, 0.2 mM EGTA, 1 mM Pefabloc, 0.5 μM aprotinin, 5 μM leupeptin, 2 μM pepstatin, 5 μM E64, 150 mM NaCl, 1% sodium cholate, pH 8). PI3Kγ was eluted with 6 column volumes of wash buffer that contain 100 μg/mL of a peptide that competes for binding of the glu tag. The column fractions with the eluted protein (determined by taking OD280 readings) were collected and dialyzed in 0.2 mM EGTA, 1 mM DTT, 1 mM Pefabloc, 5 μM leupeptin, 0.5% sodium cholate, 150 mM NaCl, and 50% glycerol, pH 8. The fractions were stored at −80° C. until further use.
Spodtera frugiperda cells were coinfected with baculovirus expressing a glu-tagged G protein β1 and baculovirus expressing a G protein β2, at a 1:1 ratio of glu-tagged G protein β1 baculovirus to G protein β2 baculovirus. Sf9 cells are grown in 10 L bioreactors and harvested 48-72 hours post infection. Samples of infected cells were tested for G protein β1/β2 expression by Western Blot analysis, as described below. Cell lysates were homogenized and loaded onto a column of glu-tagged beads as in Biological Example 1 and competed off the column with a glu peptide and processed as described in Biological Example 1.
The inhibitory properties of the compounds in Table 1 were assayed in an in vitro PI3K assay. In a 96-well polypropylene plate, each well was spotted with 2 μL of 50 times the desired final concentration of compound in DMSO. Purified recombinant p101/p110γ protein (0.03 μg; ˜2.7 nM) and G protein β1/γ2 subunits (0.09 μg; ˜57.7 nM) for each reaction was combined in the assay buffer (30 mM HEPES, 100 mM NaCl, 1 mM EGTA, and 1 mM DTT). ATP and [γ-^32P-ATP] (0.09 μCi) were added to this mixture so that the final ATP concentration in the reaction was 20 μM. Lipid micelles were formed by sonicating phosphatidylinositol-4,5-diphosphate (PIP2), phosphatidylethanolamine (PE), and Na-cholate in the assay buffer for 10 minutes, adding MgCl2 and incubating on ice for 20 minutes, for final concentrations of 25 μM PIP2, 300 μM PE, 0.02% Na-cholate, and 10 mM MgCl2 in the reaction. The reactions were started by adding equal volumes lipid and enzyme mixture in a total volume of 50 μL, allowed to run for 20 minutes at room temperature, and stopped with 100 μL 75 mM H3PO4. The lipid product was transferred to a glass fiber filter plate and washed with 75 mM H3PO4 several times. The presence of radioactive lipid product (PIP3) was measured by adding Wallac Optiphase mix to each well and counting in a Wallac 1450 Trilux plate reader (PerkinElmer Life Sciences Inc., Boston, Mass. 02118). The IC50 for each compound tested is reported in μM in the Table 2: […]

T1 sequence (P48736 whole entry, species assumed): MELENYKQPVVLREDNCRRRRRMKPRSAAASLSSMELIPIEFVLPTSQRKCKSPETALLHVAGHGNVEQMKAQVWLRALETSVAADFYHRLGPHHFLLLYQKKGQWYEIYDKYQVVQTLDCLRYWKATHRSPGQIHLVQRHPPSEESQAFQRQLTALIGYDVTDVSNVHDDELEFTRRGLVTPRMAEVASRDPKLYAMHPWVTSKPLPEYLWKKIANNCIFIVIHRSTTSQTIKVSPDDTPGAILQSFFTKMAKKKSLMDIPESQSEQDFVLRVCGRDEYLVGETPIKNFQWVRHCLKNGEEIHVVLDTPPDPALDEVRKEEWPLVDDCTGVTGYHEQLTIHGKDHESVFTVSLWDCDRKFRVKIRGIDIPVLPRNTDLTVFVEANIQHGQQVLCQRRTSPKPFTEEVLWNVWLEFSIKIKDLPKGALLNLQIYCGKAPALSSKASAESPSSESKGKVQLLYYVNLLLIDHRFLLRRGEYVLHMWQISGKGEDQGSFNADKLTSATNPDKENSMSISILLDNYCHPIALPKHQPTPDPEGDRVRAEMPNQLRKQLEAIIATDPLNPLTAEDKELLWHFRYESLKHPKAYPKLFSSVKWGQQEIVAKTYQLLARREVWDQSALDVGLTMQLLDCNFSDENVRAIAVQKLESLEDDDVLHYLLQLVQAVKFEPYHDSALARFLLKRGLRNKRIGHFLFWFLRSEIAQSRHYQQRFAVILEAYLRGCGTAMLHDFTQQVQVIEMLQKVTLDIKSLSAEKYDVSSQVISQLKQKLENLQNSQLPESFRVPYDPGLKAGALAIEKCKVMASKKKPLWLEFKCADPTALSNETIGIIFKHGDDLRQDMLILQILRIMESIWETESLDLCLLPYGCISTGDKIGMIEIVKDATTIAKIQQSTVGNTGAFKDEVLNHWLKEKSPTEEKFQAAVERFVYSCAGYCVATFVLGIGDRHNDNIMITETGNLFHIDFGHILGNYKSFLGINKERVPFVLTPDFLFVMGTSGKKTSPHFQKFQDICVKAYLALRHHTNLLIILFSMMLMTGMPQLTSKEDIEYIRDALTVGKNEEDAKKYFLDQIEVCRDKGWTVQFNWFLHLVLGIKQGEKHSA
T1 sequence (Q8WYR1 whole entry partner, species assumed): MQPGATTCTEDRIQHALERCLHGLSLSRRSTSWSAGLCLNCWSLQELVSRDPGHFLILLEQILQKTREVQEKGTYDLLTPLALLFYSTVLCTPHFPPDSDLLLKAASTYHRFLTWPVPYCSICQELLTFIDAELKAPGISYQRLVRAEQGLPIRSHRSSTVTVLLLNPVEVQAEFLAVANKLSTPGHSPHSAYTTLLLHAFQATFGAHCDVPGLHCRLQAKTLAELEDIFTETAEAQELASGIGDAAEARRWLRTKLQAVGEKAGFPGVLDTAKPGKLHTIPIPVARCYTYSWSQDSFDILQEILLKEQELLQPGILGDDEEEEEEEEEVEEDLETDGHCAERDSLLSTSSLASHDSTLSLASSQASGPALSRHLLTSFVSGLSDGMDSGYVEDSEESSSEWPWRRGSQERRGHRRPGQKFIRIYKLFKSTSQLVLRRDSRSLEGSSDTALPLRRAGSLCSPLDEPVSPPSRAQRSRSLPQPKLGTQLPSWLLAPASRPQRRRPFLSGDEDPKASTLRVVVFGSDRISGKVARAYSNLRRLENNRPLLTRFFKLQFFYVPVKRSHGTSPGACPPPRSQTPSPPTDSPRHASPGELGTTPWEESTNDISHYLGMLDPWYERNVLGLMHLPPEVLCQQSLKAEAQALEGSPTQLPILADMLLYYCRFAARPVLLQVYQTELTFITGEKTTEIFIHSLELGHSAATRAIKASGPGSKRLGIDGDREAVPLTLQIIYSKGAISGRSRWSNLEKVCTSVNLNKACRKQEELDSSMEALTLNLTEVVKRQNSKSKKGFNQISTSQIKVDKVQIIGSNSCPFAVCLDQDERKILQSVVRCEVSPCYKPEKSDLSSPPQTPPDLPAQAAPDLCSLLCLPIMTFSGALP

IC50	SMILES
25 nM	COC(=O)c1cc(Nc2nc(C)c3ccc(=O)n(C4CCCCCC4)c3n2)cn1C [Example 1, 4-(8-Cycloheptyl-4-methyl-7-oxo-7,8-dihydro-pyrido[2,3-d]pyrimidin-2-ylamino)-1-methyl-1H-pyrrole-2-carboxylic acid methyl ester]
63 nM	CCOC(=O)c1cc(Nc2nc(C)c3ccc(=O)n(C)c3n2)cn1C(C)c1ccccc1 (stereo not drawn) [Example 2, 4-(4,8-Dimethyl-7-oxo-7,8-dihydro-pyrido[2,3-d]pyrimidin-2-ylamino)-1-(1-phenyl-ethyl)-1H-pyrrole-2-carboxylic acid ethyl ester]
18 nM	COC(=O)c1cc(Nc2nc(C)c3ccc(=O)n(C4CC4)c3n2)cn1C [Example 3, 4-(8-Cyclopropyl-4-methyl-7-oxo-7,8-dihydro-pyrido[2,3-d]pyrimidin-2-ylamino)-1-methyl-1H-pyrrole-2-carboxylic acid methyl ester]
13 nM	COC(=O)c1cc(Nc2nc(C)c3ccc(=O)n(C4CCC4)c3n2)cn1C [Example 4, 4-(8-Cyclobutyl-4-methyl-7-oxo-7,8-dihydro-pyrido[2,3-d]pyrimidin-2-ylamino)-1-methyl-1H-pyrrole-2-carboxylic acid methyl ester]
24 nM	COC(=O)c1cc(Nc2nc(C)c3ccc(=O)n(C4CCOCC4)c3n2)cn1C [Example 5, 1-Methyl-4-[4-methyl-7-oxo-8-(tetrahydro-pyran-4-yl)-7,8-dihydro-pyrido[2,3-d]pyrimidin-2-ylamino]-1H-pyrrole-2-carboxylic acid methyl ester]
4 nM	COC(=O)c1cc(Nc2nc(C)c3ccc(=O)n(C4CCCCC4)c3n2)cn1C [Example 6, 4-(8-Cyclohexyl-4-methyl-7-oxo-7,8-dihydro-pyrido[2,3-d]pyrimidin-2-ylamino)-1-methyl-1H-pyrrole-2-carboxylic acid methyl ester]
36 nM	CCOC(=O)c1cc(Nc2nc(C)c3ccc(=O)n(C4CCCCCC4)c3n2)cn1Cc1ccccc1 [Example 7, 1-Benzyl-4-(8-cycloheptyl-4-methyl-7-oxo-7,8-dihydro-pyrido[2,3-d]pyrimidin-2-ylamino)-1H-pyrrole-2-carboxylic acid ethyl ester]
12 nM	COC(=O)c1cc(Nc2nc(C)c3ccc(=O)n(CCC4CC4)c3n2)cn1C [Example 8, 4-[8-(2-Cyclopropyl-ethyl)-4-methyl-7-oxo-7,8-dihydro-pyrido[2,3-d]pyrimidin-2-ylamino]-1-methyl-1H-pyrrole-2-carboxylic acid methyl ester]
12 nM	COC(=O)c1cc(Nc2nc(C)c3cc(F)c(=O)n(C4CCCC4)c3n2)cn1C [Example 9, 4-(8-Cyclopentyl-6-fluoro-4-methyl-7-oxo-7,8-dihydro-pyrido[2,3-d]pyrimidin-2-ylamino)-1-methyl-1H-pyrrole-2-carboxylic acid methyl ester]
8 nM	COC(=O)c1cc(Nc2nc(C)c3cc(F)c(=O)n(CC4CCOCC4)c3n2)cn1C [Example 10, 4-[6-Fluoro-4-methyl-7-oxo-8-(tetrahydro-pyran-4-ylmethyl)-7,8-dihydro-pyrido[2,3-d]pyrimidin-2-ylamino]-1-methyl-1H-pyrrole-2-carboxylic acid methyl ester]
5 nM	COC(=O)c1cc(Nc2nc(C)c3cc(F)c(=O)n(C4CCC(OC)CC4)c3n2)cn1C (stereo not drawn) [Example 11, 4-[6-Fluoro-8-(4-methoxy-cyclohexyl)-4-methyl-7-oxo-7,8-dihydro-pyrido[2,3-d]pyrimidin-2-ylamino]-1-methyl-1H-pyrrole-2-carboxylic acid methyl ester]
4 nM	CCOC(=O)c1cc(Nc2nc(C)c3cc(F)c(=O)n(C4CCCC4)c3n2)cn1Cc1cccnc1 [Example 12, 4-(8-Cyclopentyl-6-fluoro-4-methyl-7-oxo-7,8-dihydro-pyrido[2,3-d]pyrimidin-2-ylamino)-1-pyridin-3-ylmethyl-1H-pyrrole-2-carboxylic acid ethyl ester]

— US20080255162A1, “Pyrrolyl Substituted Pyrido[2,3-D]Pyrimidin-7-Ones and Derivatives Thereof as Therapeutic Agents” (WARNER-LAMBERT COMPANY LLC, priority 2004, published 2008)
